Results as given in PMC3091966 (2011).

How the values were obtained:
[1] = molecular target: T1, human αβγ ENaC (α subunit) (Homo sapiens, UniProt P37088+P51168+P51170); assay: two-electrode voltage clamp in Xenopus oocytes, external perfusion; type: cell-based
T1 sequence (P37088 1-669): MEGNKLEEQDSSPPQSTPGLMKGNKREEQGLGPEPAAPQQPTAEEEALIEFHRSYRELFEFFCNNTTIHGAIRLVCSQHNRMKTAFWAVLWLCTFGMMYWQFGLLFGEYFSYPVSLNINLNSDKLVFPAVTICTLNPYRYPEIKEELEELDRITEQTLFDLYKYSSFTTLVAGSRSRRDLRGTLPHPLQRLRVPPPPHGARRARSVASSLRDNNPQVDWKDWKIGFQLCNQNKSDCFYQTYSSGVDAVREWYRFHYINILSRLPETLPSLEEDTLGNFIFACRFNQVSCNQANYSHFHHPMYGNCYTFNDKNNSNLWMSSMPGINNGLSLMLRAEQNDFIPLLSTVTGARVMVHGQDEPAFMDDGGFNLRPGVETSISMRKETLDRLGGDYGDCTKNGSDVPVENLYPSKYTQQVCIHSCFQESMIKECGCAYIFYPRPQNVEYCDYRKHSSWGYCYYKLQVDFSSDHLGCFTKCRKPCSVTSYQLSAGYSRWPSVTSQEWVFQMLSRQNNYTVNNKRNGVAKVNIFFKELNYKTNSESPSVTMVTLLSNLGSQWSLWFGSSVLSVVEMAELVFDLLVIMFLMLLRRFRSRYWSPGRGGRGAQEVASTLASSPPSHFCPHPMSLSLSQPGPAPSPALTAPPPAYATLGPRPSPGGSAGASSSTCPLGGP
T1 sequence (P51168 1-640): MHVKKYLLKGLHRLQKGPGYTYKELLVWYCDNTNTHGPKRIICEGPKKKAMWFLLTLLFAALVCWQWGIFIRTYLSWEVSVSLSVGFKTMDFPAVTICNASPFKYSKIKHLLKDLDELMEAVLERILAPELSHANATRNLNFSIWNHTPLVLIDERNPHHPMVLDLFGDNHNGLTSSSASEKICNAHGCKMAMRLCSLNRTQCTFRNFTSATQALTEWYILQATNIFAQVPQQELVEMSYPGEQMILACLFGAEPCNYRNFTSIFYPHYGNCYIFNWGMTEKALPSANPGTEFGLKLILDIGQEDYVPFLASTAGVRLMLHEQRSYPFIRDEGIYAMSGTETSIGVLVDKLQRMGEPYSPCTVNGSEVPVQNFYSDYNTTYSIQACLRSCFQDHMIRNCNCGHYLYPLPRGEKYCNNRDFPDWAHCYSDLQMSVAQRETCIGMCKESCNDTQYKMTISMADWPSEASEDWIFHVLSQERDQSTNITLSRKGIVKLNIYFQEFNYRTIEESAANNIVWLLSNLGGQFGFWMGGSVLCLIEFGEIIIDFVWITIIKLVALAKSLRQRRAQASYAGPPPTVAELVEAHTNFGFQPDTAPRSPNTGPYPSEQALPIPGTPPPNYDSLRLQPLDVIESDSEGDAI
T1 sequence (P51170 1-649): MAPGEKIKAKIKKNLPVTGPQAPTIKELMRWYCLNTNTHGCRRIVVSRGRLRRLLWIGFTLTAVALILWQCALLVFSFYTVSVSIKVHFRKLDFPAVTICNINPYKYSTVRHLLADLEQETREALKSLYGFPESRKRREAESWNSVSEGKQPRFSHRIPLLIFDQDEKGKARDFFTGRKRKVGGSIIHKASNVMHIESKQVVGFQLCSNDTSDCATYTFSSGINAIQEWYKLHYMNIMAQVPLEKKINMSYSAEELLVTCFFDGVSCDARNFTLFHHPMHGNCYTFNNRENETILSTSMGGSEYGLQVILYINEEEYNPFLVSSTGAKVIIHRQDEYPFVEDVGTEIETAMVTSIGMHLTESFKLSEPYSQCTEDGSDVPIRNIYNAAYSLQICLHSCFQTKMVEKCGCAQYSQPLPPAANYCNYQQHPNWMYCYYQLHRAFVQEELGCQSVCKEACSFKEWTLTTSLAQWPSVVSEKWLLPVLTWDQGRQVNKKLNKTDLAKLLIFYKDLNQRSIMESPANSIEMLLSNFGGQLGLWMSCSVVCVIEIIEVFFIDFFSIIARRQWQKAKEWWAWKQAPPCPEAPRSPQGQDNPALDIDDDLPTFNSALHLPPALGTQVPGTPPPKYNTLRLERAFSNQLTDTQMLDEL

[2] = molecular target: T1, human αβγ ENaC (α subunit); assay: two-electrode voltage clamp in Xenopus oocytes, block of current; type: cell-based

Structure (SMILES) | EC50 [1] | two-electrode voltage clamp in Xenopus oocytes, block of current [2]
Nc1ncnc2c1nc(Sc1ccc(Cl)cc1)n2[C@@H]1O[C@@H]2COP(=O)(O)O[C@H]2[C@H]1O [cpt-cAMP] | 49 ± 14 µM | 
N=C(N)NC(=O)c1nc(Cl)c(N)nc1N [amiloride] |  | Both basal and elevated currents were sensitive to amiloride.
